Reference: ChEMBL document CHEMBL1147471, “Selecting against S1P3 enhances the acute cardiovascular tolerability of 3-(N-benzyl)aminopropylphosphonic acid S1P receptor agonists” (Bioorg Med Chem Lett, 2004)

Experiments:
in vivo [1] = conditions: rat, iv, 1 mg/kg
in vivo [2] = conditions: rat, plasma, iv, 1 mg/kg
in vivo [3] = conditions: rat, iv, 1 mg/kg; remark: listed apart in the source

- Vd (in vivo [1]): 1.4 L/kg
- clearance (in vivo [2]): 9.2 mL/min/kg
- half-life (in vivo [3]): 2.1 h
SMILES: CCCCCCCCOc1c(Br)cc(CNCCCP(=O)(O)O)cc1OC
